Source: patent US12428427B2, “Methods and compositions for targeting PD-L1” (Aligos Therapeutics, Inc., priority 2021, dated 2025)

Columns and labels:
[1] = biological target: PDL1/PD1 (Homo sapiens, UniProt Q9NZQ7); assay: PDL1/PD1 Binding Assay; settings: PDL1-6×His 0.3 nM, PD1-Fc-Avi-Biotin 2.5 nM, Acceptor/Donor beads; read-out: PD-1/PD-L1 PPI IC50
Experimental: Compounds to be tested were serially diluted in DMSO, and further diluted in assay buffer (25 mM Hepes pH 7.4, 150 mM NaCl, 0.005% Tween 20, BSA 0.01%). Diluted compounds were added to the wells with final concentration of DMSO at 1%. PDL1-6×His protein was added to the wells, mixed well with compound. The plates were incubated for 30 min at room temperature. PD1-Fc-Avi-Biotin protein was added to the wells. Final concentration of PDL1 and PD1 protein is 0.3 nM and 2.5 nM, respectively. After a binding time of 30 min at room temperature, Anti-6×His Acceptor beads (final concentration 20 ug/ml) were added to the wells, and the incubation continued for 1 h. Streptavidin Donor beads (final concentration 20 ug/mL) were added at reduced light. The plates were sealed with foil and incubated in the dark for additional 1 h or overnight before reading on an Envision reader. The IC50 values were determined by fitting the curves using a four-parameter equation in Graphpad Prism 8.

[2] = biological target: T1, PD-1/PD-L1 interaction (Homo sapiens, UniProt Q9NZQ7); assay: PD-1/PD-L1 NFAT Reporter Assay; type: cell-based; settings: co-culture of PD-L1 expressing CHO cells and PD-1 overexpressing Jurkat cells, 6 hrs, NFAT luciferase
T1 construct: expressed in transfected cells; Jurkat cells (PD-1 plus NFAT-luciferase)
T1 sequence (Q9NZQ7 19-290): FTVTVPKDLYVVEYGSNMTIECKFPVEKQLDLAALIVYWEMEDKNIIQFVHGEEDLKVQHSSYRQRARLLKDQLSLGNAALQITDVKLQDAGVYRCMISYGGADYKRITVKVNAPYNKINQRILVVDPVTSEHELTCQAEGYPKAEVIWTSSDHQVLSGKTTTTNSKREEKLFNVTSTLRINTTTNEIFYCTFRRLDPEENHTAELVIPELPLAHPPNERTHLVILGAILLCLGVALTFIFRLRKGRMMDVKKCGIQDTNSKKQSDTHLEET
Experimental: Blocking the PD-1/PD-L1 interaction will release the inhibitory signal and results in TCR signaling and NFAT-mediated luciferase activity.
CHO cells expressing surface-bound anti-CD3 antibodies and PD-L1 were first seeded overnight and treated with the compounds. Jurkat cells overexpressing PD-1 and a luciferase construct under NFAT promoter were then immediately seeded on the monolayer of CHO cells. The co-culture was then incubated for 6 hrs at 37° C. Luciferase activity was assessed by adding the ONE-Glo reagent and measuring luminescence with a plate reader. EC50 values were determined from the fit of the dose-response curves.

Chain of PDL1/PD1 (Q9NZQ7 19-238 limits assumed): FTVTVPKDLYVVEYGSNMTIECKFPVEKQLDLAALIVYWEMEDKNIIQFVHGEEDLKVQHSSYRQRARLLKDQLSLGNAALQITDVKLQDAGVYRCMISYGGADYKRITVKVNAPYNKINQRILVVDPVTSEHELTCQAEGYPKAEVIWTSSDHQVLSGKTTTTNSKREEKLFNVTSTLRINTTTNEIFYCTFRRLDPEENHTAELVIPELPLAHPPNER

| IC50 [1] [nM] | EC50 [2] [nM] | Compound |
| --- | --- | --- |
| ≤ 10 | > 5000 | COc1nc(-c2cccc(-c3cccc(NC(=O)c4ccnn(C)c4=O)c3Cl)c2Cl)ccc1CN1CCN(C(=O)OC(C)(C)C)[C@H](C(=O)O)C1 [Compound C-23] |
| ≤ 10 | 100 to 1000 | COc1nc(-c2cccc(-c3cccc(NC(=O)c4ccnn(C)c4=O)c3Cl)c2Cl)ccc1CN1CCN(C(=O)OC(C)(C)C)[C@@H](C(=O)O)C1 [Compound C-24] |
| ≤ 10 | 10 to 100 | COc1nc(-c2cccc(-c3cccc(NC(=O)c4ccnn(C)c4=O)c3Cl)c2Cl)ccc1CNCCCC(=O)O [Compound C-25] |
| ≤ 10 | 100 to 1000 | COc1nc(-c2cccc(-c3cccc(NC(=O)c4ccnn(C)c4=O)c3Cl)c2Cl)ccc1CN1CC2(C(=O)O)CCC1CC2 [Compound C-27] |
| ≤ 10 | 100 to 1000 | COc1nc(-c2cccc(-c3cccc(NC(=O)c4ccnn(C)c4=O)c3Cl)c2Cl)ccc1CN[C@H](C(=O)O)C(C)C [Compound C-28] |
| ≤ 10 | 10 to 100 | COc1nc(-c2cccc(-c3cccc(NC(=O)c4ccnn(C)c4=O)c3Cl)c2Cl)ccc1CN[C@@H](C)C(=O)O [Compound C-29] |
| ≤ 10 | 100 to 1000 | COc1nc(-c2cccc(-c3cccc(NC(=O)c4ccnn(C)c4=O)c3Cl)c2Cl)ccc1CN1CCO[C@@H](C(=O)O)C1 [Compound C-30] |
| ≤ 10 | 10 to 100 | COc1nc(-c2cccc(-c3cccc(NC(=O)c4ccnn(C)c4=O)c3Cl)c2Cl)ccc1CN1C[C@H](C(=O)O)C(C)(C)C1 [Compound C-31] |
| ≤ 10 | 10 to 100 | COc1nc(-c2cccc(-c3cccc(NC(=O)c4ccnn(C)c4=O)c3Cl)c2Cl)ccc1CN1CCC[C@@H]1CC(=O)O [Compound C-33] |
| ≤ 10 | 10 to 100 | COc1nc(-c2cccc(-c3cccc(NC(=O)c4ccnn(C)c4=O)c3Cl)c2Cl)ccc1CN1CCC[C@H]1CC(=O)O [Compound C-34] |
| ≤ 10 | 10 to 100 | COc1nc(-c2cccc(-c3cccc(NC(=O)c4ccnn(C)c4=O)c3Cl)c2Cl)ccc1CNCC(C)(C)C(=O)O [Compound C-35] |
| ≤ 10 | 10 to 100 | COc1nc(-c2cccc(-c3cccc(NC(=O)c4ccnn(C)c4=O)c3Cl)c2Cl)ccc1CNC[C@H](C)C(=O)O [Compound C-36] |
| ≤ 10 | 10 to 100 | COc1nc(-c2cccc(-c3cccc(NC(=O)c4ccnn(C)c4=O)c3Cl)c2Cl)ccc1CNC[C@@H](C)C(=O)O [Compound C-37] |
| ≤ 10 | 10 to 100 | COc1nc(-c2cccc(-c3cccc(NC(=O)c4ccnn(C)c4=O)c3Cl)c2Cl)ccc1CNC[C@H](O)C(=O)O [Compound C-38] |
| ≤ 10 | 10 to 100 | COc1nc(-c2cccc(-c3cccc(NC(=O)c4ccnn(C)c4=O)c3Cl)c2Cl)ccc1CNC1CCC[C@@H]1C(=O)O (stereo partly shown) [Compound C-39] |
| ≤ 10 | 100 to 1000 | COc1nc(-c2cccc(-c3cccc(NC(=O)c4ccnn(C)c4=O)c3Cl)c2Cl)ccc1CN[C@H]1CCC[C@H]1C(=O)O [Compound C-40] |
| ≤ 10 | 10 to 100 | COc1nc(-c2cccc(-c3cccc(NC(=O)c4ccnn(C)c4=O)c3Cl)c2Cl)ccc1CN1CC(O)(C(=O)O)C1 [Compound C-41] |
| ≤ 10 | 10 to 100 | COc1nc(-c2cccc(-c3cccc(NC(=O)c4ccnn(C)c4=O)c3Cl)c2Cl)ccc1CN1CC(CC(=O)O)C1 [Compound C-42] |
| ≤ 10 | 10 to 100 | COc1nc(-c2cccc(-c3cccc(NC(=O)c4ccnn(C)c4=O)c3Cl)c2Cl)ccc1CN1CCO[C@H](C(=O)O)C1 [Compound C-44] |
| ≤ 10 | 10 to 100 | COc1nc(-c2cccc(-c3cccc(NC(=O)c4ccnn(C)c4=O)c3Cl)c2Cl)ccc1CN[C@@H](CO)C(=O)O [Compound C-47] |
| ≤ 10 | 100 to 1000 | COc1nc(-c2cccc(-c3cccc(NC(=O)c4ccnn(C)c4=O)c3Cl)c2Cl)ccc1CN1C[C@@H](C(=O)O)C(C)(C)C1 [Compound C-48] |
| ≤ 10 | 10 to 100 | COc1nc(-c2cccc(-c3cccc(NC(=O)c4ccnn(C)c4=O)c3Cl)c2Cl)ccc1CN[C@@H]1CN(C(C)=O)C[C@H]1O [Compound C-49] |
| ≤ 10 | ≤ 10 | COc1nc(-c2cccc(-c3cccc(NC(=O)c4ccnn(C)c4=O)c3Cl)c2Cl)ccc1CN1CC[C@H](O)C1 [Compound C-50] |
| ≤ 10 | 10 to 100 | CCOC(=O)C1CN(Cc2ccc(-c3cccc(-c4cccc(NC(=O)c5ccnn(C)c5=O)c4C)c3Cl)nc2OC)C1 [Compound C-53] |

| IC50 [1] [nM] | EC50 [2] [nM] | Compound |
| --- | --- | --- |
| ≤ 10 | 10 to 100 | COc1nc(-c2cccc(-c3cccc(NC(=O)c4ccnn(C)c4=O)c3C)c2Cl)ccc1CN1CC(C(=O)O)C1 [Compound C-54] |
| ≤ 10 | 10 to 100 | CCOC(=O)[C@H]1CCN(Cc2ccc(-c3cccc(-c4cccc(NC(=O)c5ccnn(C)c5=O)c4C)c3Cl)nc2OC)C1 [Compound C-55] |
| ≤ 10 | 10 to 100 | COc1nc(-c2cccc(-c3cccc(NC(=O)c4ccnn(C)c4=O)c3C)c2Cl)ccc1CN1CC[C@H](C(=O)O)C1 [Compound C-56] |
| ≤ 10 | 10 to 100 | CCOC(=O)[C@@H]1CCN(Cc2ccc(-c3cccc(-c4cccc(NC(=O)c5ccnn(C)c5=O)c4C)c3Cl)nc2OC)C1 [Compound C-57] |
| ≤ 10 | 10 to 100 | COc1nc(-c2cccc(-c3cccc(NC(=O)c4ccnn(C)c4=O)c3C)c2Cl)ccc1CN1CC[C@@H](C(=O)O)C1 [Compound C-58] |
| ≤ 10 | 10 to 100 | COc1nc(-c2cccc(-c3cccc(NC(=O)c4ccnn(C)c4=O)c3C)c2Cl)ccc1CN1CC(C)(C(=O)O)C1 [Compound C-60] |
| ≤ 10 | 10 to 100 | COC(=O)C1(F)CN(Cc2ccc(-c3cccc(-c4cccc(NC(=O)c5ccnn(C)c5=O)c4C)c3Cl)nc2OC)C1 [Compound C-61] |
| ≤ 10 | 10 to 100 | COc1nc(-c2cccc(-c3cccc(NC(=O)c4ccnn(C)c4=O)c3C)c2Cl)ccc1CN1CC(NC(C)=O)C1 [Compound C-63] |
| ≤ 10 | 10 to 100 | COc1nc(-c2cccc(-c3cccc(NC(=O)c4ccnn(C)c4=O)c3C)c2Cl)ccc1CN1CC2(C1)CN(C(C)=O)C2 [Compound C-64] |
| ≤ 10 | ≤ 10 | COc1nc(-c2cccc(-c3cccc(NC(=O)c4ccnn(C)c4=O)c3C)c2Cl)ccc1CN1CC[C@H](O)C1 [Compound C-65] |
| ≤ 10 | 10 to 100 | COc1nc(-c2cccc(-c3cccc(NC(=O)c4ccnn(C)c4=O)c3C)c2Cl)ccc1CN1CC(O)C1 [Compound C-66] |
| ≤ 10 | ≤ 10 | COc1nc(-c2cccc(-c3cccc(NC(=O)c4ccnn(C)c4=O)c3C)c2Cl)ccc1CN1CC[C@@H](O)C1 [Compound C-67] |
| ≤ 10 | 10 to 100 | COc1nc(-c2cccc(-c3cccc(NC(=O)c4ccnn(C)c4=O)c3C)c2C)ccc1CN[C@@H]1CCOC[C@H]1O [Compound C-70] |
| ≤ 10 | > 5000 | COc1nc(-c2cccc(-c3cccc(NC(=O)c4ccnn(C)c4=O)c3C)c2C)ccc1CNC(C)(C)CO [Compound C-73] |
| ≤ 10 | ≤ 10 | COc1nc(-c2cccc(-c3cccc(NC(=O)c4ccnn(C)c4=O)c3Cl)c2Cl)c(F)cc1CN[C@@H]1CCOC[C@@H]1O [Compound C-75] |
| ≤ 10 | 10 to 100 | COc1nc(-c2cccc(-c3cccc(NC(=O)c4ccnn(C)c4=O)c3Cl)c2Cl)c(F)cc1CN1CC(C(=O)O)C1 [Compound C-76] |
| ≤ 10 | 10 to 100 | CCOC(=O)C1CN(Cc2cc(F)c(-c3cccc(-c4cccc(NC(=O)c5ccnn(C)c5=O)c4Cl)c3Cl)nc2OC)C1 [Compound C-77] |
| ≤ 10 | 100 to 1000 | COC(=O)C1CN(Cc2cc(F)c(-c3cccc(-c4cccc(NC(=O)c5ccnn(C)c5=O)c4Cl)c3Cl)nc2OC)C1 [Compound C-78] |
| ≤ 10 | 10 to 100 | CCOC(=O)C1CN(Cc2cnc(-c3cccc(-c4cccc(NC(=O)c5ccnn(C)c5=O)c4Cl)c3Cl)nc2OC)C1 [Compound C-79] |
| ≤ 10 | 10 to 100 | COc1nc(-c2cccc(-c3cccc(NC(=O)c4ccnn(C)c4=O)c3Cl)c2Cl)ncc1CN1CC(C(=O)O)C1 [Compound C-80] |
| ≤ 10 | ≤ 10 | COc1nc(-c2cccc(-c3cccc(NC(=O)c4ccnn(C)c4=O)c3Cl)c2Cl)ncc1CN[C@@H]1CCOC[C@@H]1O [Compound C-81] |
| ≤ 10 | 10 to 100 | COc1nc(-c2cccc(-c3cccc(NC(=O)c4ccnn(C)c4=O)c3Cl)c2Cl)ncc1CN1CC(O)C1 [Compound C-82] |
| ≤ 10 | ≤ 10 | COc1nc(-c2cccc(-c3cccc(NC(=O)c4ccnn(C)c4=O)c3C)c2Cl)cnc1CN1CC[C@H](O)C1 [Compound C-87] |
